In BindingDB's records for doi:10.1021/jm970559i (University of Michigan, 1998):

What was measured:
[1] = Antiviral activity against Human Immunodeficiency Virus by Reverse transcriptase assay in CEM-SS cells
[2] = Antiviral activity against Human Immunodeficiency Virus by Reverse transcriptase assay in CEM-SS
[3] = Antiviral activity against Human Immunodeficiency Virus by Reverse transcriptase assay in CEM-SS cells; remark: listed apart in the source
[4] = Antiviral activity against Human Immunodeficiency Virus by Reverse transcriptase (RT) assay in CEM-SS cells.
[5] = Antiviral activity against Human Immunodeficiency Virus by Reverse transcriptase assay CEM-SS cells

| SMILES | IC50 [1] | also measured |
| --- | --- | --- |
| FC(F)(F)c1cc(Cn2c(Br)nc3cc(Cl)c(Cl)cc32)cc(C(F)(F)F)c1 [1-(3,5-Bis-trifluoromethyl-benzyl)-2-bromo-5,6-dichloro-1H-benzoimidazole] | > 100 µM |  |
| Cc1cn([C@H]2C[C@H](N=[N+]=[N-])[C@@H](CO)O2)c(=O)[nH]c1=O [1-((2R,4S,5S)-4-Azido-5-hydroxymethyl-tetrahydro-furan-2-yl)-5-methyl-1H-pyrimidine-2,4-dione] | 0.0031 µM |  |
| Cc1ccc(Cn2c(Cl)nc3cc(Cl)c(Cl)cc32)cc1 [2,5,6-Trichloro-1-(4-methyl-benzyl)-1H-benzoimidazole] |  | IC50 [2]: > 100 µM |
| O=[N+]([O-])c1ccc(Cn2c(Cl)nc3cc(Cl)c(Cl)cc32)cc1 [2,5,6-Trichloro-1-(4-nitro-benzyl)-1H-benzoimidazole] |  | IC50 [3]: > 100 µM |
| Clc1ccc(Cn2c(Br)nc3cc(Cl)c(Cl)cc32)cc1Cl [2-Bromo-5,6-dichloro-1-(3,4-dichloro-benzyl)-1H-benzoimidazole] | > 100 µM |  |
| Cc1cccc(Cn2c(Br)nc3cc(Cl)c(Cl)cc32)c1 [2-Bromo-5,6-dichloro-1-(3-methyl-benzyl)-1H-benzoimidazole] | 66 µM |  |
| O=[N+]([O-])c1cccc(Cn2c(Br)nc3cc(Cl)c(Cl)cc32)c1 [2-Bromo-5,6-dichloro-1-(3-nitro-benzyl)-1H-benzoimidazole] |  | IC50 [4]: > 32 µM |
| COc1ccc(Cn2c(Br)nc3cc(Cl)c(Cl)cc32)cc1 [2-Bromo-5,6-dichloro-1-(4-methoxy-benzyl)-1H-benzoimidazole] |  | IC50 [5]: > 100 µM |
